Numbering of substitutions follows the chain as printed.
Experiments:
AR = molecular target: T1, AR (Homo sapiens, UniProt P10275, T878A); assay: AR transcriptional activity, LNCaP-ARR2PB-eGFP reporter cells; format: cell-based; settings: LNCaP-ARR2PB-eGFP cells, 5 nM DHT, 72 hours; read-out: IC50 AR transcriptional activities
T1 construct: into the androgen-dependent PCa cells (LNCaP); endogenous in cells; host or cells: LNCaP-ARR2PB-eGFP
T1 sequence (P10275 1-920 T878A): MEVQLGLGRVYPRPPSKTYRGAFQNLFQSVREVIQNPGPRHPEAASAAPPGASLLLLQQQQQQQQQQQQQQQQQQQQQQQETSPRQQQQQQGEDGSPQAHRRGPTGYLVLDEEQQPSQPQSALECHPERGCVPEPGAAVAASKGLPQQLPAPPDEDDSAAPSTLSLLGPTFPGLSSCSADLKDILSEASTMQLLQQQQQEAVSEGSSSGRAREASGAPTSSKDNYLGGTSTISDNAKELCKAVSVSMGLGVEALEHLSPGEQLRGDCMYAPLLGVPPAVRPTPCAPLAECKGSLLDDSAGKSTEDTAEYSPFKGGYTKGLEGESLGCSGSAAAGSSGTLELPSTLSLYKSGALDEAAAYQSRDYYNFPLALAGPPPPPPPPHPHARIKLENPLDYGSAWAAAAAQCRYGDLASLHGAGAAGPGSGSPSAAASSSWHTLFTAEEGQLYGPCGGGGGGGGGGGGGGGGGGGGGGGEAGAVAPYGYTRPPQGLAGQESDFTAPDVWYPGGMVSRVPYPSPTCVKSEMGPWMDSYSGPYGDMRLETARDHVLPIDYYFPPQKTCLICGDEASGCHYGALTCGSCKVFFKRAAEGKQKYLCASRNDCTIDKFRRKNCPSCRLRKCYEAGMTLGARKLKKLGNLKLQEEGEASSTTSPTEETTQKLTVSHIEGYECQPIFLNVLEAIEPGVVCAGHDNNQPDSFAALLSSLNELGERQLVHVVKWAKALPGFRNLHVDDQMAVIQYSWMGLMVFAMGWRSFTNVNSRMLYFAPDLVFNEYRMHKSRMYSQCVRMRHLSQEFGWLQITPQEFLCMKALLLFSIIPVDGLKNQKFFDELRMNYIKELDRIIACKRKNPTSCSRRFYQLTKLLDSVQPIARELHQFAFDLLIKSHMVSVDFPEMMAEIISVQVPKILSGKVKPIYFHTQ
From the text: Detection principles: We conducted a stable transfection of promoter ARR2PB known for its strong AR responsiveness, into the androgen-dependent PCa cells (LNCaP). The expression of enhanced green fluorescent protein (eGFP) is depending on the degree of activation of AR. Therefore, LNCaP-ARR2PB-eGFP cell line could quantitatively determine the AR antagonistic activities of the compounds by evaluating the expression of eGFP.

FL-AR^WT = molecular target: T2, FL-AR^WT (Homo sapiens, UniProt P10275); assay: Luciferase reporter assay in PC3 cells, wild type AR; format: cell-based; settings: read-out: IC50 toward FL-AR^WT
T2 construct: toward full-length (FL)-AR^WT and FL-AR^V684A; expressed in transfected cells; host or cells: PC3
T2 sequence (P10275 1-920): T1 sequence (P10275 1-920 T878A) with A878T
Method: Detection principles: A reporter system for detecting the activities of firefly luciferase. To quantitatively detect the interaction between transcription factors and target promoters, the fluorescent intensities are detected to quantitatively evaluate the activities of firefly luciferase.
Methods: PC3 cells (no endogenous AR) treated with DMEM media supplemented with 5% CSS for 48 hours. Then, the PC3 cells (1.2×10^4/well) were seeded into 96-well plates. After 16 hours, the PC3 cells were transfected with 20 ng/well plasmid and incubated for 20 min at room temperature. After 1 day incubation, the media in the wells was replaced, followed by the addition of various concentrations of compounds. After 48 hours, the culture medium was discarded and the cells were washed with 100 μL PBS, followed by addition of 30 μL 1×PLB and the 96-well plates was shaken on a shaker for 20 min to ensure complete lysis of the cells. Then, the cell lysis supernatant (20 μL/well) was transferred to a white opaque 96-well, and addition of 30 μL Luciferase Assay Reagent II to each well. Then, the fluorescent intensities of firefly luciferase were evaluated. Afterwards, 30 μL Stop&Glo Reagant was added to the wells, and the fluorescent intensities of […] evaluated.

LNCaP xenograft = LNCaP xenograft model in vivo; settings: intratumor injection 2.5 mg/kg/week
Method: Methods: LNCaP cells were injected to the Male CB17 SCID mice (6-8 weeks old). Once tumor size reached target value, the mice were randomized into three groups with 6-8 mice per group. […] The mice weight and tumor volume were periodically recorded. Finally, the tumors were harvested.

In the case of CC(=O)Cc1nsc(NC(=O)c2cc(-c3cccc(C(F)(F)F)c3)oc2C)n1 [Compound A-1, 2-Methyl-N-(3-(2-oxopropyl)-1,2,4-thiadiazol-5-yl)-5-(3-(trifluoromethyl)phenyl)furan-3-carboxamide], the IC50 (AR) is reported as 30 nM, the IC50 (FL-AR^WT) is reported as 1840 nM and the body weight (LNCaP xenograft) is reported as “no significant loss of body weight”. For the same compound, the “tumor growth inhibition, tumor volume” value (LNCaP xenograft) was “much superior to that for Enzalutamide” and the “tumor growth inhibition, tumor weight” value (LNCaP xenograft) was “much superior to that for Enzalutamide”.

— patent publication US20240376091A1, “THIADIAZOLEAMIDE DERIVATIVES AND THEIR APPLICATIONS” (ZHEJIANG UNIVERSITY, priority 2021, published 2024)
